Literature values as cited in patent US20040033957A1, “FAP-activated anti-tumor prodrugs” (Boehringer Ingelheim Pharma GmbH & Co. KG, priority 2002, published 2004).
Where a SMILES comes first, the peptide text is derived from it. The star is where a group is joined. AFC = O=c1cc(C(F)(F)F)c2ccc(N*)cc2o1

How the values were obtained:
FAPα dimers = biological target: T1, FAPα dimers (Homo sapiens, UniProt Q12884); details: membrane overlay assay
T1 sequence (Q12884 1-760): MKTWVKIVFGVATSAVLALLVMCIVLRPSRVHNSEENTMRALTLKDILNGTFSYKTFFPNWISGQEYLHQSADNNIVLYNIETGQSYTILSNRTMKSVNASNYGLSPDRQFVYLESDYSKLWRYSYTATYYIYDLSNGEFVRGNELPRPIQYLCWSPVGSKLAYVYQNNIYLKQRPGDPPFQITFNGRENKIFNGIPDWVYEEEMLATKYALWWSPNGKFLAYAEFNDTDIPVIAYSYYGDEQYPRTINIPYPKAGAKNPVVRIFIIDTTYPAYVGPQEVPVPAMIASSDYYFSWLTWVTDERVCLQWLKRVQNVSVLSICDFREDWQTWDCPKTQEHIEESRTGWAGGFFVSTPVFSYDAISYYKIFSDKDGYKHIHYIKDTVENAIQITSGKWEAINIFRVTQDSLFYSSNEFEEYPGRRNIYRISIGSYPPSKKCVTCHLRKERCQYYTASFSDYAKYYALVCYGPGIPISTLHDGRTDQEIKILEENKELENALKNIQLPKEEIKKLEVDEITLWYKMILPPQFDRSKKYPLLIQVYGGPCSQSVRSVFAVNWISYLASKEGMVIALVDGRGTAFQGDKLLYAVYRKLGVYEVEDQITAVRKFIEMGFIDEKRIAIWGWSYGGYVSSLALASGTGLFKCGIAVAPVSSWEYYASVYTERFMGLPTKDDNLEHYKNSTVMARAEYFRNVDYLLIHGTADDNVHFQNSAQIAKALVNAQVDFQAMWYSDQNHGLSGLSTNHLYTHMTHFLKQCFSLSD

[1] = directly in the circulation, humans
xenograft tumor = details: mouse xenograft tumor models

Compound | cleavage by FAPα dimers (FAPα dimers) | fraction of the prodrug metabolized to free doxorubicin [1] | efficacy as compared to doxorubicin (xenograft tumor) | tolerability (humans) | myelosuppression (patients, correlated with AUC of released doxorubicin)
C[C@H](N)C(=O)N1CCC[C@H]1C(=O)Nc1ccc2c(C(F)(F)F)cc(=O)oc2c1 [Ala-Pro-7-amino-4-trifluoromethyl coumarin] (H-Ala-Pro-{AFC}) | able to cleave |  |  |  | 
NCC(=O)N1CCC[C@H]1C(=O)Nc1ccc2c(C(F)(F)F)cc(=O)oc2c1 [Gly-Pro-7-amino-4-trifluoromethyl coumarin] (H-Gly-Pro-{AFC}) | able to cleave |  |  |  | 
NCCCC[C@H](N)C(=O)N1CCC[C@H]1C(=O)Nc1ccc2c(C(F)(F)F)cc(=O)oc2c1 [Lys-Pro-7-amino-4-trifluoromethyl coumarin] (H-Lys-Pro-{AFC}) | able to cleave |  |  |  | 
COc1cccc2c1C(=O)c1c(O)c3c(c(O)c1C2=O)C[C@@](O)(C(=O)CO)C[C@@H]3O[C@H]1C[C@H](NC(=O)[C@@H](N)CC(C)C)[C@H](O)[C@H](C)O1 [N-L-leucyl-doxorubicin] |  | roughly half | improved efficacy | comparably poor tolerability | Myelosuppression was seen
